Assay results published in ChEMBL document CHEMBL1128883, “Synthesis and bioassay of a protein tyrosine phosphatase inhibitor, dephostatin” (Bioorg Med Chem Lett, 1995).

Experiments:
[1] = target: T1, Tyrosine-protein phosphatase non-receptor type 1 (Homo sapiens) (UniProt P18031); assay: The rate constant for the inactivation of mammalian Protein-tyrosine phosphatase 1 (PTP1 ) was evaluated
T1 sequence (whole entry): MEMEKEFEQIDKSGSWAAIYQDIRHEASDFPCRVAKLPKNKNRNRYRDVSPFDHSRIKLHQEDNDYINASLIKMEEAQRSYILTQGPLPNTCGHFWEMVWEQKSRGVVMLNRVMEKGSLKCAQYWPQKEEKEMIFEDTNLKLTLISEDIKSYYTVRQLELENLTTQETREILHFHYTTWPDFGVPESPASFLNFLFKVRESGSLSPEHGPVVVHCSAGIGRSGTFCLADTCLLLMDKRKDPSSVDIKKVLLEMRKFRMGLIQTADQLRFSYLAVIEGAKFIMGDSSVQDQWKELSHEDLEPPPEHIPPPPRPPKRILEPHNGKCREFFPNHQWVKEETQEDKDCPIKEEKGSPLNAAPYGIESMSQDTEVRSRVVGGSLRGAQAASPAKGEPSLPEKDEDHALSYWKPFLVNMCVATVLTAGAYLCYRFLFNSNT

[2] = target: T1, Tyrosine-protein phosphatase non-receptor type 1 (Homo sapiens); assay: Apparent pseudo-first-order rate constant of inactivation of Protein Tyrosine Phosphatase (PTP) was determined; value given as 0.5-2.8
[3] = target: T1, Tyrosine-protein phosphatase non-receptor type 1 (Homo sapiens); assay: Apparent pseudo-first-order rate constant of inactivation of Protein Tyrosine Phosphatase (PTP) was determined; value given as 1-25

Compound	Rate constant [1]	Rate constant [2]	Rate constant [3]
CN(N=O)c1cc(O)ccc1O	1.08 M⁻¹ s⁻¹	0.5 mM	
CN(N=O)c1ccccc1	0.0167 M⁻¹ s⁻¹		1 mM
